The supplement of paper PMC10627819

Key:
Experiment in all cases: fitness (endpoint OD595 vs no drug) (fraction); higher = more growth
[1] = system: B. subtilis 168
Outline: (§1)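 In 384-well plates at 37 °C, cultures began at OD595 0.01 in 30 µl, with 55 µl used for S. pneumoniae. OD595 readings every 30 min for 14 h were corrected by the first reading. Fitness divides the stationary-phase transition optical density by the robust mean of no-drug control wells. The result is capped at 1.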

[2] = system: S. aureus DSM 20231
Outline: as §1

[3] = system: S. aureus Newman
Outline: as §1

[4] = system: S. pneumoniae D39V
Outline: as §1
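Note: OD595 on entry to stationary phase over no-drug wells; at most 1.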

CCC[C@@H]1C[C@@H](C(=O)N[C@@H]([C@H]2O[C@H](SC)[C@H](O)[C@@H](O)[C@H]2O)[C@H](C)Cl)N(C)C1 [Clindamycin] + CO/N=C(\C(=O)N[C@@H]1C(=O)N2C(C(=O)O)=C(COC(C)=O)CS[C@H]12)c1csc(N)n1 [Cefotaxime]
one replicate
Conditions	fitness
[1], first compound 0.0039 µg/mL, partner 0.0625 µg/mL	0.681
[1], first compound 0.0039 µg/mL, partner 0.125 µg/mL	0.531
[1], first compound 0.0039 µg/mL, partner 0.25 µg/mL	0.442
[1], first compound 0.0078 µg/mL, partner 0.0625 µg/mL	0.62
[1], first compound 0.0078 µg/mL, partner 0.125 µg/mL	0.482
[1], first compound 0.0078 µg/mL, partner 0.25 µg/mL	0.389
[1], first compound 0.0156 µg/mL, partner 0.0625 µg/mL	0.485
[1], first compound 0.0156 µg/mL, partner 0.125 µg/mL	0.406
[1], first compound 0.0156 µg/mL, partner 0.25 µg/mL	0.314
[1], first compound 0.0625 µg/mL, partner 0.00775 µg/mL	0.473
[1], first compound 0.0625 µg/mL, partner 0.0155 µg/mL	0.389
[1], first compound 0.0625 µg/mL, partner 0.031 µg/mL	0.343
[1], first compound 0.125 µg/mL, partner 0.00775 µg/mL	0.339
[1], first compound 0.125 µg/mL, partner 0.0155 µg/mL	0.304
[1], first compound 0.125 µg/mL, partner 0.031 µg/mL	0.3
[1], first compound 0.25 µg/mL, partner 0.00775 µg/mL	0.33
[1], first compound 0.25 µg/mL, partner 0.0155 µg/mL	0.254
[1], first compound 0.25 µg/mL, partner 0.031 µg/mL	0.111
[3], first compound 0.0312 µg/mL, partner 0.039 µg/mL	0.525
[3], first compound 0.0312 µg/mL, partner 0.312 µg/mL	0.128
[3], first compound 0.0625 µg/mL, partner 0.039 µg/mL	0.161
[3], first compound 0.0625 µg/mL, partner 0.312 µg/mL	0.0773
[3], first compound 0.125 µg/mL, partner 0.039 µg/mL	0.0501
[3], first compound 0.125 µg/mL, partner 0.312 µg/mL	0.113

Conditions	fitness
[1], first compound 0.0625 µg/mL, partner 0.5 µg/mL	0.138
[1], first compound 0.0625 µg/mL, partner 1 µg/mL	0.0488
[1], first compound 0.0625 µg/mL, partner 2 µg/mL	0.0865
[1], first compound 0.125 µg/mL, partner 0.5 µg/mL	0.096
[1], first compound 0.125 µg/mL, partner 1 µg/mL	0.0462
[1], first compound 0.125 µg/mL, partner 2 µg/mL	0.0669
[1], first compound 0.25 µg/mL, partner 0.5 µg/mL	0.0789
[1], first compound 0.25 µg/mL, partner 1 µg/mL	0.0542
[1], first compound 0.25 µg/mL, partner 2 µg/mL	0.0739
[2], first compound 0.0625 µg/mL, partner 0.312 µg/mL	0.11
[2], first compound 0.125 µg/mL, partner 0.039 µg/mL	0.0991
[2], first compound 0.125 µg/mL, partner 0.078 µg/mL	0.0447
[2], first compound 0.125 µg/mL, partner 0.156 µg/mL	0.0526
[2], first compound 0.125 µg/mL, partner 0.312 µg/mL	0.0465
[3], first compound 0.0312 µg/mL, partner 0.078 µg/mL	0.437
[3], first compound 0.0312 µg/mL, partner 0.156 µg/mL	0.351
[3], first compound 0.0312 µg/mL, partner 0.625 µg/mL	0.055
[3], first compound 0.0312 µg/mL, partner 1.25 µg/mL	0.036
[3], first compound 0.0312 µg/mL, partner 2.5 µg/mL	0.0433
[3], first compound 0.0625 µg/mL, partner 0.078 µg/mL	0.223
[3], first compound 0.0625 µg/mL, partner 0.156 µg/mL	0.114
[3], first compound 0.0625 µg/mL, partner 0.625 µg/mL	0.0368
[3], first compound 0.0625 µg/mL, partner 1.25 µg/mL	0.0614
[3], first compound 0.0625 µg/mL, partner 2.5 µg/mL	0.0509
[3], first compound 0.125 µg/mL, partner 0.078 µg/mL	0.0724
[3], first compound 0.125 µg/mL, partner 0.156 µg/mL	0.0344
[3], first compound 0.125 µg/mL, partner 0.625 µg/mL	0.0721
[3], first compound 0.125 µg/mL, partner 1.25 µg/mL	0.0661
[3], first compound 0.125 µg/mL, partner 2.5 µg/mL	0.0579
[4], first compound 0.0125 µg/mL, partner 0.0018 µg/mL	0.792
[4], first compound 0.0125 µg/mL, partner 0.0035 µg/mL	0.812
[4], first compound 0.0125 µg/mL, partner 0.007 µg/mL	0.763
[4], first compound 0.015 µg/mL, partner 0.0018 µg/mL	0.889
[4], first compound 0.015 µg/mL, partner 0.0035 µg/mL	0.908
[4], first compound 0.015 µg/mL, partner 0.007 µg/mL	0.803
[4], first compound 0.025 µg/mL, partner 0.0018 µg/mL	0.573
[4], first compound 0.025 µg/mL, partner 0.0035 µg/mL	0.549
[4], first compound 0.025 µg/mL, partner 0.007 µg/mL	0.503
[4], first compound 0.03 µg/mL, partner 0.0018 µg/mL	0.709
[4], first compound 0.03 µg/mL, partner 0.0035 µg/mL	0.666
[4], first compound 0.03 µg/mL, partner 0.007 µg/mL	0.569
[4], first compound 0.05 µg/mL, partner 0.0018 µg/mL	0.256
[4], first compound 0.05 µg/mL, partner 0.0035 µg/mL	0.253
[4], first compound 0.05 µg/mL, partner 0.007 µg/mL	0.184
[4], first compound 0.06 µg/mL, partner 0.0018 µg/mL	0.374
[4], first compound 0.06 µg/mL, partner 0.0035 µg/mL	0.354
[4], first compound 0.06 µg/mL, partner 0.007 µg/mL	0.288
